{"source": "paper PMC7026418", "about": "“The kinase polypharmacology landscape of clinical PARP inhibitors” (Scientific Reports, 2020)", "assay_in_all_cases": "biochemical", "parameters_in_all_cases": "DiscoveRx KINOMEscan active site-directed competition binding; percent of control kinase bound to immobilised ligand", "key": {"[1]": {"target": "MYLK2 (Homo sapiens, UniProt Q9H1R3)", "sequence (Q9H1R3 whole entry)": "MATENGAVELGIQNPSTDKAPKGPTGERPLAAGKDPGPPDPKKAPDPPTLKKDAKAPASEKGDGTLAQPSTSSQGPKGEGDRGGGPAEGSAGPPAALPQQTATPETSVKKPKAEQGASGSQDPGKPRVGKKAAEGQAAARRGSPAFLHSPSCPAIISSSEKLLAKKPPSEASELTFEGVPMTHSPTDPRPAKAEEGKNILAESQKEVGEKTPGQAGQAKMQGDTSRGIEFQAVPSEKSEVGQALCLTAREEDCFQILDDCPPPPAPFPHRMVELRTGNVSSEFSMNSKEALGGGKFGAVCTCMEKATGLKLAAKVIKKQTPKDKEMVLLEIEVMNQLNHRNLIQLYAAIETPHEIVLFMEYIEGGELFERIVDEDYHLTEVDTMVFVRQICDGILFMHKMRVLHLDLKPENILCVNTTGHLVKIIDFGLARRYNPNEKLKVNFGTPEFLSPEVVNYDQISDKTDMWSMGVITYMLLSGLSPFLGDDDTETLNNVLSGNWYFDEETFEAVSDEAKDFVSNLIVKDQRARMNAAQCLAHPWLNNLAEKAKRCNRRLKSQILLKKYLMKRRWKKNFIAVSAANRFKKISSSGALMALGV"}, "[2]": {"target": "T1, FLT3(N841I) (Homo sapiens, UniProt P36888, N841I)", "T1 sequence (P36888 1-993 N841I)": "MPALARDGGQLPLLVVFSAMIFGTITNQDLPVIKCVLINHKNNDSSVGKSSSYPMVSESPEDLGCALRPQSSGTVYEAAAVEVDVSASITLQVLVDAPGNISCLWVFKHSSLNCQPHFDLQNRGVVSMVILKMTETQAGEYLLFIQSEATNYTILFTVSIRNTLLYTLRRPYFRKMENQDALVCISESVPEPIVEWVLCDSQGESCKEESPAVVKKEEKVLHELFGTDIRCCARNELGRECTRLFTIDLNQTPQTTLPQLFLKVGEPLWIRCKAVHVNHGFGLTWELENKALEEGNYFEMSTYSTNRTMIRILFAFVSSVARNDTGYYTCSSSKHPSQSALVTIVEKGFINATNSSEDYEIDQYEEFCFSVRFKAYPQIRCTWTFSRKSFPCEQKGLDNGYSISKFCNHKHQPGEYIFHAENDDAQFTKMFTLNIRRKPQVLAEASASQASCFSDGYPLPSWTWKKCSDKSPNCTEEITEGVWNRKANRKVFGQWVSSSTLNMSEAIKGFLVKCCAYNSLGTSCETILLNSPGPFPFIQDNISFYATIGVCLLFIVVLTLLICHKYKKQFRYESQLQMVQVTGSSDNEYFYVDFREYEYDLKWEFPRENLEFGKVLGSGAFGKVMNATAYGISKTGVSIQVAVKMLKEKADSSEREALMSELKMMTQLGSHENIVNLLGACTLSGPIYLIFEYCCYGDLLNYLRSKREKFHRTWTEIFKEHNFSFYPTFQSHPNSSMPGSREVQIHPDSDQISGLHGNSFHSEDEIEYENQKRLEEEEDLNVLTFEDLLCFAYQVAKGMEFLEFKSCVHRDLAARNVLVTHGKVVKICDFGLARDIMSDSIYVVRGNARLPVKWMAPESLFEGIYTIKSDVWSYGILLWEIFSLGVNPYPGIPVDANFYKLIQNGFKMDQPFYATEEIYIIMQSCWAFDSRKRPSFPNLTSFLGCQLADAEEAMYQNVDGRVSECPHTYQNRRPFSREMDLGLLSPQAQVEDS"}, "[3]": {"target": "T2, PKAC-beta (Homo sapiens, UniProt P22694)", "T2 construct": "gene PRKACB"}, "[4]": {"target": "BRAF(V600E) (Homo sapiens, UniProt P15056, V600E)", "sequence (P15056 whole entry V600E)": "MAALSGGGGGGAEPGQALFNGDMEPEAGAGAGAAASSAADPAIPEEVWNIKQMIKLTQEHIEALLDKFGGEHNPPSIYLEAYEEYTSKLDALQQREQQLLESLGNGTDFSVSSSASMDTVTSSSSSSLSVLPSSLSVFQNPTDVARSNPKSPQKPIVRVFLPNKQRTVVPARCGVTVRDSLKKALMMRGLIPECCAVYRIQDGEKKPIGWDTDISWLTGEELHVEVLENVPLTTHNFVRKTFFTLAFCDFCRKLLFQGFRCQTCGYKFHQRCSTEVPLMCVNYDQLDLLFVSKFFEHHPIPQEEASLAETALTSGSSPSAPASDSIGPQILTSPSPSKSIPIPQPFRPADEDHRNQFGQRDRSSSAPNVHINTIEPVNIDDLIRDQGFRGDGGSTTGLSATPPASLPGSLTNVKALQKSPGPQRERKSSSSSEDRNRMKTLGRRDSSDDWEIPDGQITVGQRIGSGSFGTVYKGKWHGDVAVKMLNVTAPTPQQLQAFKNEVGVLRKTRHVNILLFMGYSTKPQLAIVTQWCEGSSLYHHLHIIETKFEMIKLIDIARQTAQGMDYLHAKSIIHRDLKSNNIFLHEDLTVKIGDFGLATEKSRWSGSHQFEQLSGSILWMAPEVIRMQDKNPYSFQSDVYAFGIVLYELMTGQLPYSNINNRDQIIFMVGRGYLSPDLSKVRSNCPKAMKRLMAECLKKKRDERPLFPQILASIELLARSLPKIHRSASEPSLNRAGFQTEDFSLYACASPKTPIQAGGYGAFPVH"}, "[5]": {"target": "T3, YSK4 (Homo sapiens, UniProt Q56UN5)", "T3 construct": "gene MAP3K19", "T3 sequence (Q56UN5 1-1328)": "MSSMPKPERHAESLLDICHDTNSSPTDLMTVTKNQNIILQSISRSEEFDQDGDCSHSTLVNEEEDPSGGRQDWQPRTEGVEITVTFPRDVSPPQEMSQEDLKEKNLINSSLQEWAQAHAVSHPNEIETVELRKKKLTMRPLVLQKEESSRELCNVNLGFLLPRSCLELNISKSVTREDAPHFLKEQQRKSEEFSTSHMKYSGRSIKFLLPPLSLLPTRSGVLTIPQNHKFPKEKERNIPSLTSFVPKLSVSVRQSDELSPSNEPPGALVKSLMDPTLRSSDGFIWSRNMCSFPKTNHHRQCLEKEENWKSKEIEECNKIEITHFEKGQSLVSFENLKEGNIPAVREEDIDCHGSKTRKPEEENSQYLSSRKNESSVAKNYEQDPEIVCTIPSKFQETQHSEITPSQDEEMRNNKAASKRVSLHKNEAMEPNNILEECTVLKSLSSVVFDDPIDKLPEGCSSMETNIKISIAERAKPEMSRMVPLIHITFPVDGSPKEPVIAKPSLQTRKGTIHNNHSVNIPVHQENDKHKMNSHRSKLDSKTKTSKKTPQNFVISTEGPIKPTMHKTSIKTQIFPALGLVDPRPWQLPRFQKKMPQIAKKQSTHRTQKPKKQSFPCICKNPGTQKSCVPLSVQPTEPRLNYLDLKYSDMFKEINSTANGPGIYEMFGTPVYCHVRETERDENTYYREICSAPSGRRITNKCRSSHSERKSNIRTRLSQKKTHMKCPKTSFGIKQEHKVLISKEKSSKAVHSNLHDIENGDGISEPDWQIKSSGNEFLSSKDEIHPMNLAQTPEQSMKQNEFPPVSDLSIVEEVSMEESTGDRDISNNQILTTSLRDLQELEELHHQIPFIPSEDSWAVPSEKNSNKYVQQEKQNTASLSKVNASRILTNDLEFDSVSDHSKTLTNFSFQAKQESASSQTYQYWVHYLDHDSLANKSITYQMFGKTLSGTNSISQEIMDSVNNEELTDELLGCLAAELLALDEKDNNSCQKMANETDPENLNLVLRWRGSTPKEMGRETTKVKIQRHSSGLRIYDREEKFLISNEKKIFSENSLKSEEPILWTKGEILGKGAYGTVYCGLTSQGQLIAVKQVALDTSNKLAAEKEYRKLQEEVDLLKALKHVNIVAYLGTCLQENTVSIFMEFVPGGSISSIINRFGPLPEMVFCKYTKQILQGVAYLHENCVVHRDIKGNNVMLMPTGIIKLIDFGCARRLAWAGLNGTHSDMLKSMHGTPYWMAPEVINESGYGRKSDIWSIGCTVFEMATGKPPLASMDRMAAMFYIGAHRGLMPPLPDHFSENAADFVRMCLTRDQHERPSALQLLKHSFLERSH"}, "[6]": {"target": "FGR (Homo sapiens, UniProt P09769)", "sequence (P09769 whole entry)": "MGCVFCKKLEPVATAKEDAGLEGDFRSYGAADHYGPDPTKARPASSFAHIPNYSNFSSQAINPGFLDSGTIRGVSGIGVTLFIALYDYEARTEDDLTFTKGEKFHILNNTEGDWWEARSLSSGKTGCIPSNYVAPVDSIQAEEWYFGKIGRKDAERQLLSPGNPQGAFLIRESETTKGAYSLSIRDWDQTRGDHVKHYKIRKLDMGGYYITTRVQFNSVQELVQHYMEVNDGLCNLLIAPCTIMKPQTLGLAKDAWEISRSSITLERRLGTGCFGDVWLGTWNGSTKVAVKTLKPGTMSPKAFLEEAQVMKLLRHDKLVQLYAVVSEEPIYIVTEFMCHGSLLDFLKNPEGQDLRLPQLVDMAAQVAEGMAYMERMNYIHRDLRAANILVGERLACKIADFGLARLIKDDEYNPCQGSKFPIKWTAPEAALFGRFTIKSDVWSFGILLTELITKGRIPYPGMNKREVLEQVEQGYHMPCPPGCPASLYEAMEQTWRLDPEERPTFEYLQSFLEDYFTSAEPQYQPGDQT"}, "[7]": {"target": "T4, PFTAIRE2 (Homo sapiens, UniProt Q96Q40)", "T4 construct": "gene CDK15", "T4 sequence (Q96Q40 whole entry)": "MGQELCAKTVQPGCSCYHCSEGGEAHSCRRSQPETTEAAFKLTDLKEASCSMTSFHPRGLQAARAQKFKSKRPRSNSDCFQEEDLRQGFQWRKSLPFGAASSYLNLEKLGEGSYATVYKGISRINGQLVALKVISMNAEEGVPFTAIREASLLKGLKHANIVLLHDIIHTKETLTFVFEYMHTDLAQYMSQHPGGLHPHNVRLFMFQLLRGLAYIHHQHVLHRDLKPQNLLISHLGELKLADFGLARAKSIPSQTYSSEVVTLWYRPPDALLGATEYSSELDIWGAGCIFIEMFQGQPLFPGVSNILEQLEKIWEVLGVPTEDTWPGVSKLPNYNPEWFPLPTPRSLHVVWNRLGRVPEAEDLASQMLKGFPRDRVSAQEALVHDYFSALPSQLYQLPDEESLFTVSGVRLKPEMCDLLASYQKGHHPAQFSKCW"}, "[8]": {"conditions": "read-out: Talazoparib (BMN 673) / %Ctrl @ 10000nM"}, "[9]": {"conditions": "read-out: Olaparib / %Ctrl @ 10000nM"}, "[10]": {"conditions": "read-out: Niraparib (MK-4827) / %Ctrl @ 10000nM"}, "[11]": {"conditions": "read-out: Rucaparib / %Ctrl @ 10000nM, binding competition, % of control"}}, "note": "Where two headings read alike, the source gives them in different places.", "data": [{"smiles": "Cn1ncnc1[C@H]1c2n[nH]c(=O)c3cc(F)cc(c23)N[C@@H]1c1ccc(F)cc1", "note": "[Talazoparib]", "values": [{"measurement": "percent of control binding at 10 µM", "setting": "[1]; [8]", "result": 100, "unit": "%"}, {"measurement": "percent of control binding at 10 µM", "setting": "[2]; [8]", "result": 100, "unit": "%"}, {"measurement": "percent of control binding at 10 µM", "setting": "[3]; [8]", "result": 56, "unit": "%"}, {"measurement": "percent of control binding at 10 µM", "setting": "[4]; [8]", "result": 68, "unit": "%"}, {"measurement": "percent of control binding at 10 µM", "setting": "[5]; [8]", "result": 89, "unit": "%"}, {"measurement": "percent of control binding at 10 µM", "setting": "[6]; [8]", "result": 99, "unit": "%"}, {"measurement": "percent of control binding at 10 µM", "setting": "[7]; [8]", "result": 100, "unit": "%"}]}, {"smiles": "O=C(c1cc(Cc2n[nH]c(=O)c3ccccc23)ccc1F)N1CCN(C(=O)C2CC2)CC1", "note": "[Olaparib]", "values": [{"measurement": "percent of control binding at 10 µM", "setting": "[1]; [9]", "result": 100, "unit": "%"}, {"measurement": "percent of control binding at 10 µM", "setting": "[2]; [9]", "result": 95, "unit": "%"}, {"measurement": "percent of control binding at 10 µM", "setting": "[3]; [9]", "result": 100, "unit": "%"}, {"measurement": "percent of control binding at 10 µM", "setting": "[4]; [9]", "result": 87, "unit": "%"}, {"measurement": "percent of control binding at 10 µM", "setting": "[5]; [9]", "result": 65, "unit": "%"}, {"measurement": "percent of control binding at 10 µM", "setting": "[6]; [9]", "result": 92, "unit": "%"}, {"measurement": "percent of control binding at 10 µM", "setting": "[7]; [9]", "result": 100, "unit": "%"}]}, {"smiles": "NC(=O)c1cccc2cn(-c3ccc([C@@H]4CCCNC4)cc3)nc12", "note": "[Niraparib]", "values": [{"measurement": "percent of control binding at 10 µM", "setting": "[1]; [10]", "result": 92, "unit": "%"}, {"measurement": "percent of control binding at 10 µM", "setting": "[2]; [10]", "result": 77, "unit": "%"}, {"measurement": "percent of control binding at 10 µM", "setting": "[3]; [10]", "result": 96, "unit": "%"}, {"measurement": "percent of control binding at 10 µM", "setting": "[4]; [10]", "result": 100, "unit": "%"}, {"measurement": "percent of control binding at 10 µM", "setting": "[5]; [10]", "result": 63, "unit": "%"}, {"measurement": "percent of control binding at 10 µM", "setting": "[6]; [10]", "result": 85, "unit": "%"}, {"measurement": "percent of control binding at 10 µM", "setting": "[7]; [10]", "result": 96, "unit": "%"}]}, {"smiles": "CNCc1ccc(-c2[nH]c3cc(F)cc4c3c2CCNC4=O)cc1", "note": "[Rucaparib]", "values": [{"measurement": "percent of control binding at 10 µM", "setting": "[1]; [11]", "result": 74, "unit": "%"}, {"measurement": "Rucaparib / %Ctrl @ 10000nM", "setting": "[2]; binding competition, % of control", "result": 64, "unit": "%"}, {"measurement": "percent of control binding at 10 µM", "setting": "[3]; [11]", "result": 99, "unit": "%"}, {"measurement": "percent of control binding at 10 µM", "setting": "[4]; [11]", "result": 73, "unit": "%"}, {"measurement": "percent of control binding at 10 µM", "setting": "[5]; [11]", "result": 58, "unit": "%"}, {"measurement": "percent of control binding at 10 µM", "setting": "[6]; [11]", "result": 96, "unit": "%"}, {"measurement": "percent of control binding at 10 µM", "setting": "[7]; [11]", "result": 100, "unit": "%"}]}]}
